The assay addresses T1, human PD-1 (Jurkat-PD-1 cells) / PE-labeled human PD-L1-Ig (Homo sapiens, UniProt Q15116).
T1 construct: expressed in transfected cells; host or cells: Jurkat cell line over-expressing human PD-1
Put plainly: Jurkat-PD-1 Cell Binding High-Content Screening Assay (CBA); Jurkat hPD1-PDL1 assay. To be noted: Jurkat cell line over-expressing human PD-1; PE-labeled PD-L1-Ig 20 nM final; compound incubated 2 hours at 37° C.; read-out: Jurkat HPD1-PDL1 IC50. In a few lines:
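Compound was added to Jurkat-PD-1 cells in DMEM plus 10% fetal calf serum and incubated 2 hours at 37° C. Binding of phycoerythrin-conjugated PD-L1-Ig (20 nM final) to the cells was imaged.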

Positions of bridges follow the written chain, without caps; N, C: chain ends. Non-standard residues stand in square brackets, D forms with d. Residues, ends and D or L forms follow the SMILES beside them. Phe(4-COOH) = N[C@@H](Cc1ccc(C(=O)O)cc1)C(=O)O; Phe(4-CH2NH2) = NCc1ccc(C[C@H](N)C(=O)O)cc1; Bip = N[C@@H](Cc1ccc(-c2ccccc2)cc1)C(=O)O; Phe(3-OMe) = COc1cccc(C[C@H](N)C(=O)O)c1; NMeF = CN[C@@H](Cc1ccccc1)C(=O)O; 4Pal = N[C@@H](Cc1ccncc1)C(=O)O; Cha = N[C@@H](CC1CCCCC1)C(=O)O; NMeA = CN[C@@H](C)C(=O)O; Orn = NCCC[C@H](N)C(=O)O; Dab = NCC[C@H](N)C(=O)O; Sar = CNCC(=O)O

15 molecules from US20240360178A1, “MACROCYCLIC IMMUNOMODULATORS” (Bristol-Myers Squibb Company, priority 2021, published 2024) can be followed below.

A word on the IC50: it is the concentration that gives 50% inhibition.

T1 sequence (Q15116 25-288): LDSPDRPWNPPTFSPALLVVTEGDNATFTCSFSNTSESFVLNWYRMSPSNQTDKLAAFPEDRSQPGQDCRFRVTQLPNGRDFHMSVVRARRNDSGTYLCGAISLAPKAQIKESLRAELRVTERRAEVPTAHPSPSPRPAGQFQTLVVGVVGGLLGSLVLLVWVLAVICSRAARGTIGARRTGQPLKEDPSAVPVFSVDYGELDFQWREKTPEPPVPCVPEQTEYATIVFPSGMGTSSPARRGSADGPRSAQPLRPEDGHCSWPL

Take `CC(C)C[C@@H]1NC(=O)[C@H](C(C)C)NC(=O)CN(C)C(=O)[C@H](C)N(C)C(=O)[C@H](C(C)C)NC(=O)[C@H](Cc2ccc(-c3ccccc3)cc2)NC(=O)[C@H](Cc2ccc(O)cc2)NC(=O)[C@H](Cc2c[nH]c3ccccc23)NC(=O)[C@H](CC(=O)O)NC(=O)[C@H](Cc2ccc(O)cc2)NC(=O)[C@H](Cc2ccccc2)NC(=O)CSC[C@@H](C(=O)NCC(N)=O)NC(=O)[C@H](CO)NC(=O)[C@H](C(C)C)NC1=O` [Example 1235] ({CH2CO}-FYDWY[Bip]V[NMeA][Sar]VLVSCG-NH2; thioether N-14): the IC50 is 0.11 µM.

As for `COc1cccc(C[C@@H]2NC(=O)[C@H](CC(=O)O)NC(=O)[C@H](Cc3ccc(O)cc3)NC(=O)[C@H](Cc3ccccc3)NC(=O)CSC[C@@H](C(=O)N[C@@H](C)C(N)=O)NC(=O)[C@H](CO)NC(=O)[C@H](C(C)C)NC(=O)[C@H](CC(C)C)NC(=O)[C@H](CC(N)=O)NC(=O)[C@H]3CCCN3C(=O)[C@H](C)N(C)C(=O)[C@H](C(C)C)NC(=O)[C@H](Cc3ccc(-c4ccccc4)cc3)NC(=O)[C@H](CC(C)C)NC2=O)c1` [Example 1022] ({CH2CO}-FYD[Phe(3-OMe)]L[Bip]V[NMeA][dP]NLVSCA-NH2; thioether N-14), the IC50 worked out at 0.01 µM.

As to `CC(C)C[C@@H]1NC(=O)[C@H](CCCNC(=N)N)NC(=O)[C@H](Cc2ccccc2)N(C)C(=O)[C@H](C)N(C)C(=O)[C@H](CCCNC(=N)N)NC(=O)[C@H](Cc2ccc(-c3ccccc3)cc2)NC(=O)[C@H](C(C)C)NC(=O)[C@H](Cc2c[nH]c3ccccc23)NC(=O)[C@H](CC(=O)O)NC(=O)[C@H](Cc2ccc(CN)cc2)NC(=O)[C@H](Cc2ccccc2)NC(=O)CSC[C@@H](C(=O)NCC(N)=O)NC(=O)[C@H](CO)NC(=O)[C@H](C(C)C)NC1=O` [Example 1277] ({CH2CO}-F[Phe(4-CH2NH2)]DWV[Bip]R[NMeA][NMeF]RLVSCG-NH2; thioether N-14), the IC50 was 0.14 µM.

As for `CC(C)C[C@@H]1NC(=O)[C@H](CCCNC(=N)N)NC(=O)[C@H](Cc2ccccc2)N(C)C(=O)[C@H](C)N(C)C(=O)[C@H](CCCNC(=N)N)NC(=O)[C@H](Cc2ccc(-c3ccccc3)cc2)NC(=O)[C@H](C(C)C)NC(=O)[C@H](Cc2c[nH]c3ccccc23)NC(=O)[C@H](CC(=O)O)NC(=O)[C@H](Cc2ccc(O)cc2)NC(=O)[C@H](Cc2ccc(O)cc2)NC(=O)CSC[C@@H](C(=O)NCC(N)=O)NC(=O)[C@H](CO)NC(=O)[C@H](C(C)C)NC1=O` [Example 1068] ({CH2CO}-YYDWV[Bip]R[NMeA][NMeF]RLVSCG-NH2; thioether N-14), the IC50 is 0.17 µM.

As to `CC(C)C[C@@H]1NC(=O)[C@H](CC(N)=O)NC(=O)CN(C)C(=O)[C@H](C)N(C)C(=O)[C@H](C(C)C)NC(=O)[C@H](Cc2ccc(-c3ccccc3)cc2)NC(=O)[C@H](Cc2ccc(O)cc2)NC(=O)[C@H](Cc2c[nH]c3ccccc23)NC(=O)[C@H](CC(=O)O)NC(=O)[C@H](Cc2ccc(O)cc2)NC(=O)[C@H](Cc2ccccc2)NC(=O)CSC[C@@H](C(=O)NCC(N)=O)NC(=O)[C@H](CO)NC(=O)[C@H](C(C)C)NC1=O` [Example 1224] ({CH2CO}-FYDWY[Bip]V[NMeA][Sar]NLVSCG-NH2; thioether N-14), the IC50 was 0.16 µM.

On to `CC(C)C[C@@H]1NC(=O)[C@H](CCCN)NC(=O)[C@H](Cc2ccccc2)N(C)C(=O)[C@H](C)N(C)C(=O)[C@H](CCCNC(=N)N)NC(=O)[C@H](Cc2ccc(-c3ccccc3)cc2)NC(=O)[C@H](C(C)C)NC(=O)[C@H](Cc2c[nH]c3ccccc23)NC(=O)[C@H](CC(=O)O)NC(=O)[C@H](Cc2ccc(O)cc2)NC(=O)[C@H](Cc2ccccc2)NC(=O)CSC[C@@H](C(=O)N[C@@H](CO)C(N)=O)NC(=O)[C@H]([C@@H](C)O)NC(=O)[C@H](C(C)C)NC1=O` [Example 1357] ({CH2CO}-FYDWV[Bip]R[NMeA][NMeF][Orn]LVTCS-NH2; thioether N-14), for which the 50% inhibitory concentration (IC50) turned out to be 0.21 µM.

Consider `CC(C)C[C@@H]1NC(=O)CSC[C@@H](C(=O)N[C@@H](C)C(N)=O)NC(=O)[C@H](CO)NC(=O)[C@H](C(C)C)NC(=O)[C@H](CC(C)C)NC(=O)[C@H](CCN)NC(=O)[C@H](Cc2ccccc2)N(C)C(=O)[C@H](C)N(C)C(=O)[C@H](CCCNC(=N)N)NC(=O)[C@H](Cc2ccc(-c3ccccc3)cc2)NC(=O)[C@H](C(C)C)NC(=O)[C@H](Cc2c[nH]c3ccccc23)NC(=O)[C@H](CC(=O)O)NC(=O)[C@H](Cc2ccc(O)cc2)NC1=O` [Example 1305] ({CH2CO}-LYDWV[Bip]R[NMeA][NMeF][Dab]LVSCA-NH2; thioether N-14), for which the IC50 worked out at 0.06 µM.

For the molecule `CC(C)C[C@@H]1NC(=O)[C@H](CCCNC(=N)N)NC(=O)[C@H](Cc2ccccc2)N(C)C(=O)[C@H](C)N(C)C(=O)[C@H](CCCNC(=N)N)NC(=O)[C@H](Cc2ccc(-c3ccccc3)cc2)NC(=O)[C@H](C(C)C)NC(=O)[C@H](Cc2c[nH]c3ccccc23)NC(=O)[C@H](CC(=O)O)NC(=O)[C@H](Cc2ccc(O)cc2)NC(=O)[C@H](CC(N)=O)NC(=O)CSC[C@@H](C(=O)N[C@@H](C)C(N)=O)NC(=O)[C@H]([C@@H](C)O)NC(=O)[C@H](C(C)C)NC1=O` [Example 1318] ({CH2CO}-NYDWV[Bip]R[NMeA][NMeF]RLVTCA-NH2; thioether N-14), the half-maximal inhibitory concentration (IC50) turned out to be 0.38 µM.

On to `CC(C)C[C@@H]1NC(=O)[C@H](CCCNC(=N)N)NC(=O)[C@H](Cc2ccccc2)N(C)C(=O)[C@H](C)N(C)C(=O)[C@H](CCCN)NC(=O)[C@H](Cc2ccc(-c3ccccc3)cc2)NC(=O)[C@H](C(C)C)NC(=O)[C@H](Cc2c[nH]c3ccccc23)NC(=O)[C@H](CC(=O)O)NC(=O)[C@H](Cc2ccc(O)cc2)NC(=O)[C@H](Cc2cnc[nH]2)NC(=O)CSC[C@@H](C(=O)NCC(N)=O)NC(=O)[C@H](CO)NC(=O)[C@H](C(C)C)NC1=O` [Example 1292] ({CH2CO}-HYDWV[Bip][Orn][NMeA][NMeF]RLVSCG-NH2; thioether N-14), for which the half-inhibitory concentration (IC50) came to 0.09 µM.

Turning to `CC(C)C[C@@H]1NC(=O)[C@H](CCCNC(=N)N)NC(=O)[C@H](Cc2ccccc2)N(C)C(=O)[C@H](C)N(C)C(=O)[C@H](CCCNC(=N)N)NC(=O)[C@H](Cc2ccc(-c3ccccc3)cc2)NC(=O)[C@H](C(C)C)NC(=O)[C@H](Cc2c[nH]c3ccccc23)NC(=O)[C@H](CC(=O)O)NC(=O)[C@H](Cc2cnc[nH]2)NC(=O)[C@H](Cc2ccccc2)NC(=O)CSC[C@@H](C(=O)NCC(N)=O)NC(=O)[C@H](CO)NC(=O)[C@H](C(C)C)NC1=O` [Example 1249] ({CH2CO}-FHDWV[Bip]R[NMeA][NMeF]RLVSCG-NH2; thioether N-14), the IC50 is 0.27 µM.

As to `CC(C)C[C@@H]1NC(=O)[C@H](CCCNC(=N)N)NC(=O)[C@H](Cc2ccccc2)N(C)C(=O)[C@H](C)N(C)C(=O)[C@H](CCCNC(=N)N)NC(=O)[C@H](Cc2ccc(-c3ccccc3)cc2)NC(=O)[C@H](C(C)C)NC(=O)[C@H](Cc2c[nH]c3ccccc23)NC(=O)[C@H](CC(=O)O)NC(=O)[C@H](Cc2ccccc2)NC(=O)[C@H](Cc2ccccc2)NC(=O)CSC[C@@H](C(=O)NCC(N)=O)NC(=O)[C@H](CO)NC(=O)[C@H](C(C)C)NC1=O` [Example 1238] ({CH2CO}-FFDWV[Bip]R[NMeA][NMeF]RLVSCG-NH2; thioether N-14), the IC50 was 0.17 µM.

As to `CC(C)C[C@@H]1NC(=O)[C@H](Cc2c[nH]c3ccccc23)NC(=O)[C@H](CC(=O)O)NC(=O)[C@H](Cc2ccc(O)cc2)NC(=O)[C@H](Cc2ccccc2)NC(=O)CSC[C@@H](C(=O)NCC(N)=O)NC(=O)[C@H](CO)NC(=O)[C@H](C(C)C)NC(=O)[C@H](CC(C)C)NC(=O)[C@H](CCN)NC(=O)CN(C)C(=O)[C@H](C)N(C)C(=O)[C@H](C(C)C)NC(=O)[C@H](Cc2ccc(-c3ccccc3)cc2)NC1=O` [Example 1069] ({CH2CO}-FYDWL[Bip]V[NMeA][Sar][Dab]LVSCG-NH2; thioether N-14), the IC50 is 0.16 µM.

As to `CC(C)[C@@H]1NC(=O)[C@H](Cc2c[nH]c3ccccc23)NC(=O)[C@H](CC(=O)O)NC(=O)[C@H](Cc2ccc(C(=O)O)cc2)NC(=O)[C@H](Cc2ccncc2)NC(=O)CSC[C@@H](C(=O)N[C@@H](C)C(N)=O)NC(=O)[C@H]([C@@H](C)O)NC(=O)[C@H](C(C)C)NC(=O)[C@H](CC2CCCCC2)NC(=O)[C@H](CCN)NC(=O)[C@H](Cc2ccccc2)N(C)C(=O)[C@H](CCCN)NC(=O)[C@H](CCC(=O)O)NC(=O)[C@H](Cc2ccc(-c3ccccc3)cc2)NC1=O` [Example 1438] ({CH2CO}-[4Pal][Phe(4-COOH)]DWV[Bip]E[Orn][NMeF][Dab][Cha]VTCA-NH2; thioether N-14), the IC50 was 0.07 µM.

Turning to `CC(C)C[C@@H]1NC(=O)[C@H](Cc2c[nH]c3ccccc23)NC(=O)[C@H](CC(=O)O)NC(=O)[C@H](Cc2ccc(O)cc2)NC(=O)[C@H](CC(N)=O)NC(=O)CSC[C@@H](C(=O)NCC(N)=O)NC(=O)[C@H](CO)NC(=O)[C@H](C(C)C)NC(=O)[C@H](CC(C)C)NC(=O)[C@H](CCN)NC(=O)[C@H]2CCCN2C(=O)[C@H](CCCN)NC(=O)[C@H](C(C)C)NC(=O)[C@H](Cc2ccc(-c3ccccc3)cc2)NC1=O` [Example 1403] ({CH2CO}-NYDWL[Bip]V[Orn][dP][Dab]LVSCG-NH2; thioether N-14), the IC50 was determined as 0.07 µM.

Regarding `CC(C)C[C@@H]1NC(=O)[C@H](C(C)C)NC(=O)[C@H](Cc2ccccc2)N(C)C(=O)[C@H](C)N(C)C(=O)[C@H](CCCNC(=N)N)NC(=O)[C@H](Cc2ccc(-c3ccccc3)cc2)NC(=O)[C@H](C(C)C)NC(=O)[C@H](Cc2c[nH]c3ccccc23)NC(=O)[C@H](CC(=O)O)NC(=O)[C@H](Cc2ccc(O)cc2)NC(=O)[C@H](Cc2ccccc2)NC(=O)CSC[C@@H](C(=O)NCC(N)=O)NC(=O)[C@H](CO)NC(=O)[C@H](C(C)C)NC1=O` [Example 1239] ({CH2CO}-FYDWV[Bip]R[NMeA][NMeF]VLVSCG-NH2; thioether N-14), the IC50 turned out to be 0.11 µM.
